The values that follow come from patent publication US7074605B2 (The Curators of the University of Missouri, priority 1997, dated 2006).

Where only a bound is given, the exact number is not on record here.

Chain of Clostridium perfringens α-N-acetylgalactosaminidase (I1SB20 1-629 limits assumed): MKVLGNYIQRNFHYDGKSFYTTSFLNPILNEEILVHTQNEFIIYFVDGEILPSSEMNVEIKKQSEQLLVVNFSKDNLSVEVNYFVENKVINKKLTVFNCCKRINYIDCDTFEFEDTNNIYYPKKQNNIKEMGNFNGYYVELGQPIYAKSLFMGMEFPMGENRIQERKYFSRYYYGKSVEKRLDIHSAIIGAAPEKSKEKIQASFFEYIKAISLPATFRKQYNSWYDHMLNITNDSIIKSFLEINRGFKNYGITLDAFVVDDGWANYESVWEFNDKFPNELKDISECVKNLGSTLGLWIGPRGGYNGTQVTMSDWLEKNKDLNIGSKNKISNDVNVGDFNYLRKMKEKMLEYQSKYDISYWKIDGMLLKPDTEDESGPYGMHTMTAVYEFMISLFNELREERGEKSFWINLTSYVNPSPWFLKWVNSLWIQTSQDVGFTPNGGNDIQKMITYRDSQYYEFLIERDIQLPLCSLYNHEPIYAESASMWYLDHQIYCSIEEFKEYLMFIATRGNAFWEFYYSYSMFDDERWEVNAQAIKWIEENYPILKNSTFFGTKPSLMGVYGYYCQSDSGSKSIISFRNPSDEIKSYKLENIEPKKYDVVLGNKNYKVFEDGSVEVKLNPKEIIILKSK

The assay concerns the target Clostridium perfringens α-N-acetylgalactosaminidase (Clostridium perfringens, UniProt I1SB20). In kind it is biochemical.
`O=[N+]([O-])c1ccc(O[C@@H]2O[C@H](CO)[C@@H](O)[C@H](O)[C@H]2O)cc1` [PNP-β-D-glucopyranoside] displayed an Activity of less than 0.001 U/ml.

`C[C@@H]1O[C@H](Oc2ccc([N+](=O)[O-])cc2)[C@@H](O)[C@H](O)[C@@H]1O` [PNP-β-L-fucopyranoside] registered an Activity of less than 0.001 U/ml.

The molecule `O=[N+]([O-])c1ccc(O[C@@H]2OC[C@H](O)[C@H](O)[C@H]2O)cc1` [PNP-α-L-arabinopyranoside] yielded an Activity of less than 0.001 U/ml.

Molecule `CC(=O)N[C@H]1[C@@H](Oc2ccc([N+](=O)[O-])cc2)O[C@H](CO)[C@@H](O)[C@@H]1O` [PNP-N-acetyl-α-D-glucosaminide] returned an Activity of less than 0.001 U/ml.

In turn, `O=[N+]([O-])c1ccc(O[C@@H]2O[C@H](CO)[C@H](O)[C@H](O)[C@H]2O)cc1` [PNP-β-D-galactopyranoside] registered an Activity of less than 0.001 U/ml.

In turn, `CC(=O)N[C@H]1[C@H](Oc2ccc([N+](=O)[O-])cc2)O[C@H](CO)[C@H](O)[C@@H]1O` [PNP-N-acetyl-β-D-galactosaminide] registered an Activity of less than 0.001 U/ml.

For `CC(=O)N[C@H]1[C@@H](Oc2ccc([N+](=O)[O-])cc2)O[C@H](CO)[C@H](O)[C@@H]1O` [PNP-N-acetyl-α-D-galactosaminide], the Activity came out at 0.334 U/ml.

Consider `O=[N+]([O-])c1ccc(O[C@H]2O[C@H](CO)[C@@H](O)[C@H](O)[C@@H]2O)cc1` [PNP-α-D-mannopyranoside], for which the Activity is less than 0.001 U/ml.

In the case of `CC(=O)NC1C(O)CC(Oc2ccc3c(C)cc(=O)oc3c2)(C(=O)O)OC1C(O)C(O)CO` (stereo not drawn) [4MU-N-acetyl-α-neuraminic acid], the Activity is given as less than 0.001 U/ml.

`O=[N+]([O-])c1ccc(O[C@H]2O[C@H](CO)[C@@H](O)[C@H](O)[C@H]2O)cc1` [PNP-α-D-glucopyranoside]: the Activity is given as less than 0.001 U/ml.

Molecule `CC(=O)N[C@H]1[C@H](Oc2ccc([N+](=O)[O-])cc2)O[C@H](CO)[C@@H](O)[C@@H]1O` [PNP-N-acetyl-β-D-glucosaminide] came in with an Activity of less than 0.001 U/ml.

In turn, `C[C@@H]1O[C@@H](Oc2ccc([N+](=O)[O-])cc2)[C@@H](O)[C@H](O)[C@@H]1O` [PNP-α-L-fucopyranoside] gave an Activity of less than 0.001 U/ml.

For the molecule `O=[N+]([O-])c1ccc(O[C@H]2O[C@H](CO)[C@H](O)[C@H](O)[C@H]2O)cc1` [PNP-α-D-galactopyranoside], the Activity was less than 0.001 U/ml.

`Cc1cc(=O)oc2cc(O[C@@H]3O[C@H](CO)[C@H](O)[C@H](O)[C@H]3O)ccc12` [4MU-α-D-galactopyranoside] displayed an Activity of less than 0.001 U/ml.
